System: HepG2 cells
Test: Untargeted lipidomic analysis (UHPLC-MS, OPLS-DA)
Type: cell-based, human
Conditions: 40 μM, 3 h, versus DMSO
Protocol: Figure 2 Development and characterization of the human ATGL inhibitor NG-497. (a) Structure and IC50 values of human ATGL inhibitors. (b) Dose-dependent inhibition of human ATGL by respective inhibitors. (c) ATGL activity was determined at the indicated substrate concentrations in the absence and presence of NG-497 (0.5 μM). Ki was determined by nonlinear regression analysis using GraphPad Prism. Lineweaver–Burk analysis of ATGL inhibition is shown in the inset. (d) Toxicity of NG-497 in HepG2 cells was determined after 24 h incubation at indicated concentrations. Cisplatin and DMSO were used as positive and negative controls, respectively. Cytotoxicity was determined using the Roche LDH Kit and calculated as relative LDH release compared to fully lysed cells. (e) Stability of NG-497 was analyzed via ultrahigh-performance liquid chromatography–mass spectrometry (UHPLC-MS) after incubation in human serum for 0 or 3 h at 37 °C. Atglistatin and a chemically related unstable compound were used as controls. […] NG-497 concentrations/well were determined at the indicated time points using UHPLC-MS. […] Statistical significance was determined via t test (*p < 0.05; **p < 0.01; ***p < 0.001) or ANOVA followed by Bonferroni post hoc test (^###p < 0.001). […] The detected 297 lipid species of both groups were analyzed with supervised multivariate analysis OPLS-DA and are shown as a loading plot. […]

SMILES: CCOc1ccc(-c2cc(OC)cc(C(=O)OC(C)C)n2)cc1 [NG-497]
- lipidomic changes (OPLS-DA top 25 contributing lipid species): 20 of the top 25 hits were due to an increase of TAG species, while three DAG species were decreased

Source: paper PMC9011347, “Small-Molecule Inhibitors Targeting Lipolysis in Human Adipocytes” (Journal of the American Chemical Society, 2022)
